Laboratory results as given in ChEMBL document CHEMBL1146306, “Design and synthesis of conformationally constrained tri-substituted ureas as potent antagonists of the human glucagon receptor” (Bioorg Med Chem Lett, 2007).

Experiments:
Glucagon receptor [1] = target: T1, Glucagon receptor (Homo sapiens, UniProt P47871); test: Displacement of [125]glucagon from human glucagon receptor expressed in CHO cells; type: cell-based
Glucagon receptor [2] = target: T1, Glucagon receptor; test: Antagonist activity at human glucagon receptor transfected in CHO cells assessed as inhibition of glucagon-induced cAMP accumulation; type: functional, cell-based
[3] = target: T2, Gastric inhibitory polypeptide receptor (Homo sapiens, UniProt P48546); test: Antagonist activity at human GIP receptor transfected in CHO cells assessed as inhibition of […] cAMP accumulation; type: functional, cell-based
T2 sequence (P48546 whole entry): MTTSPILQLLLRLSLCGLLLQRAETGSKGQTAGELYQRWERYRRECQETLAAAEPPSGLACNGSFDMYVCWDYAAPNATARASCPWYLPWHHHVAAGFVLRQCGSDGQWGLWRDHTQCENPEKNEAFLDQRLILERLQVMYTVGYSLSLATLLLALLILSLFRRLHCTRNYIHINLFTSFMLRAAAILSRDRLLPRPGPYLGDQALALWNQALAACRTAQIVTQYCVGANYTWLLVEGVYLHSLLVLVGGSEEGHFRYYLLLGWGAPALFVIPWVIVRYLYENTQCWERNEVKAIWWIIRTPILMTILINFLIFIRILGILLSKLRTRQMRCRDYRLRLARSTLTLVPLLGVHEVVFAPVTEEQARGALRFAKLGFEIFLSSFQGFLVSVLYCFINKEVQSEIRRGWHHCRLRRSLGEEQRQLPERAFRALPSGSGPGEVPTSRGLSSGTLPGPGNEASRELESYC

[4] = Bioavailability in mouse at 1 mg/kg, iv and 2 mg/kg, po; type: ADME, organism-based; conditions: in vivo
[5] = Volume of distribution at steady state in mouse at 1 mg/kg, iv and 2 mg/kg, po; type: ADME, organism-based; conditions: in vivo, read-out: Vdss
[6] = Half life in mouse at 1 mg/kg, iv and 2 mg/kg, po; type: ADME, organism-based; conditions: in vivo
[7] = Plasma clearance in mouse at 1 mg/kg, iv and 2 mg/kg, po; type: ADME, organism-based
[8] = Cmax in mouse at 1 mg/kg, iv and 2 mg/kg, po; type: ADME, organism-based; conditions: in vivo
Mus musculus [9] = test: Decrease in non-fasting blood glucose level in transgenic diabetic mouse expressing human glucagon receptor at 10 mg/kg, po after 3 days relative to lean control; type: functional; parameters: scale not given: the % may be the effect or the level left
Mus musculus [10] = test: Inhibition of glucagon-induced hyperglycemic response in transgenic mouse expressing human glucagon receptor at 10 mg/kg, po after 24 mins relative to control; type: functional; conditions: 0.4 h
Mus musculus [11] = test: Inhibition of glucagon-induced hyperglycemic response in transgenic mouse expressing human glucagon receptor at 3 mg/kg, po after 24 mins relative to control; type: functional; conditions: 0.4 h
Mus musculus [12] = test: Inhibition of glucagon-induced hyperglycemic response in transgenic mouse expressing human glucagon receptor at 30 mg/kg, po after 24 mins relative to control; type: functional; conditions: 0.4 h
Mus musculus [13] = test: Decrease in non-fasting blood glucose level in transgenic diabetic mouse expressing human glucagon receptor at 10 mg/kg, po after 10 days relative to lean control; type: functional; parameters: scale not given: the % may be the effect or the level left
Mus musculus [14] = test: Decrease in non-fasting blood glucose level in transgenic diabetic mouse expressing human glucagon receptor at 3 mg/kg, po after 10 days relative to lean control; type: functional; parameters: scale not given: the % may be the effect or the level left
Mus musculus [15] = test: Decrease in non-fasting blood glucose level in transgenic diabetic mouse expressing human glucagon receptor at 3 mg/kg, po after 3 days relative to lean control; type: functional; parameters: scale not given: the % may be the effect or the level left
CHO = test: Selectivity for human glucagon receptor over human GIP receptor expressed in CHO cells by glucagon-stimulated cAMP accumulation assay; type: cell-based

T1 sequence (P47871 whole entry): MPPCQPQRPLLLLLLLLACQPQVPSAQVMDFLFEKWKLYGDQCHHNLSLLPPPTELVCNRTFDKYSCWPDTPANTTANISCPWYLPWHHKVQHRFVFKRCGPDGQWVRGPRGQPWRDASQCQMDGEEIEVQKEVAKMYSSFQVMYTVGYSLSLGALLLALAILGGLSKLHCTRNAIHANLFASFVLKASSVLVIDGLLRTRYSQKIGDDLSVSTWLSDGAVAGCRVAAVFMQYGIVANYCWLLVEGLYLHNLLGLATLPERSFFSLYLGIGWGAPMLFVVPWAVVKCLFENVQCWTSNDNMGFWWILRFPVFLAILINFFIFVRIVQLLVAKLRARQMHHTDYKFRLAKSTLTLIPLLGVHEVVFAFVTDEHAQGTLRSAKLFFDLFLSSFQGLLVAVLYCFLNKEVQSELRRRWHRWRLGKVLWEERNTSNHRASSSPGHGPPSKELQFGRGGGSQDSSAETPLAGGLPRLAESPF

CC(C)(C)[C@H]1CC[C@H](N(C(=O)c2ccc(OC(F)(F)F)cc2)C2CCc3cc(C(=O)NCCC(=O)O)ccc32)CC1 (stereo not given in full)
IC50 (Glucagon receptor [1]): 130 nM
IC50 (Glucagon receptor [2]; read-out: IC50): 2780 nM

CC(C)(C)[C@H]1CC[C@H](N(C(=O)Nc2cc(C(F)(F)F)cc(C(F)(F)F)c2)C2CCc3cc(C(=O)NCCC(=O)O)ccc32)CC1 (stereo not given in full)
IC50 [3]: 2020 nM
IC50 (Glucagon receptor [1]): 28 nM
IC50 (Glucagon receptor [2]; read-out: IC50): 46 nM

CC(C)(C)[C@H]1CC[C@H](N(C(=O)Nc2ccc(OC(F)(F)F)cc2)C2CCCc3cc(C(=O)NCCC(=O)O)ccc32)CC1 (stereo not given in full)
IC50 [3]: 171 nM
bioavailability [4]: 10%
Vd [5]: 0.9 L/kg
half-life [6]: 2.5 h
clearance [7]: 9 mL/min/kg
Cmax [8]: 90 nM

CC(C)(C)[C@H]1CC[C@H](N(C(=O)Cc2ccc(OC(F)(F)F)cc2)C2CCc3cc(C(=O)NCCC(=O)O)ccc32)CC1 (stereo not given in full)
IC50 [3]: 286 nM
IC50 (Glucagon receptor [1]): 18 nM
IC50 (Glucagon receptor [2]; read-out: IC50): 500 nM

CC(C)(C)[C@H]1CC[C@H](N(C(=O)Nc2ccc(OC(F)(F)F)cc2)C2CCc3cc(C(=O)NCCC(=O)O)ccc32)CC1 (stereo not given in full)
IC50 [3]: 132 nM
bioavailability [4]: 17%
Vd [5]: 1.6 L/kg
half-life [6]: 5.6 h
Activity (Mus musculus [9]): 99%
clearance [7]: 9 mL/min/kg
inhibition in vivo at 10 mg/kg (Mus musculus [10]): 59%
inhibition in vivo at 3 mg/kg (Mus musculus [11]): 51%
inhibition in vivo at 30 mg/kg (Mus musculus [12]): 122%
Activity (Mus musculus [13]): 106%
Activity (Mus musculus [14]): 87%
Activity (Mus musculus [15]): 72%
Cmax [8]: 130 nM

CC(C)(C)[C@H]1CC[C@H](N(C(=O)c2ccc(OC(F)(F)F)cc2)C2CCc3cc(C(=O)Nc4nnn[nH]4)ccc32)CC1 (stereo not given in full)
IC50 [3]: 610 nM
IC50 (Glucagon receptor [1]): 49 nM
IC50 (Glucagon receptor [2]; read-out: IC50): 1470 nM

O=C(Nc1nn[nH]n1)c1ccc2c(c1)CCC2N(C(=O)Nc1ccc(OC(F)(F)F)cc1)c1ccc(C2CCCCC2)cc1 (stereo not given)
IC50 (Glucagon receptor [1]): 22 nM
IC50 (Glucagon receptor [2]; read-out: IC50): 85 nM

CC(C)(C)[C@H]1CC[C@H](N(C(=O)Nc2ccc(OC(F)(F)F)cc2)C2CCOc3cc(C(=O)Nc4nn[nH]n4)ccc32)CC1 (stereo not given in full)
IC50 [3]: 117 nM

O=C(O)CCNC(=O)c1ccc2c(c1)CCC2N(C(=O)Nc1ccc(OC(F)(F)F)cc1)c1ccc(OC(F)(F)F)cc1 (stereo not given)
IC50 (Glucagon receptor [1]): 820 nM
IC50 (Glucagon receptor [2]; cho): Not Active

CC(C)(C)[C@H]1CC[C@H](N(C(=O)Nc2ccc(OC(F)(F)F)cc2)C2CCc3cc(C(=O)Nc4nn[nH]n4)ccc32)CC1 (stereo not given in full)
IC50 [3]: 296 nM

CC(C)(C)[C@H]1CC[C@@H](N(C(=O)Nc2ccc(OC(F)(F)F)cc2)C2CCc3cc(C(=O)NCCC(=O)O)ccc32)CC1 (single isomer, unassigned)
IC50 [3]: 603 nM
IC50 (Glucagon receptor [1]): 3.8 nM
IC50 (Glucagon receptor [2]; read-out: IC50): 46 nM

O=C(Nc1nnn[nH]1)c1ccc2c(c1)CCC2N(C(=O)Nc1ccc(OC(F)(F)F)cc1)c1ccc(OC(F)(F)F)cc1 (stereo not given)
IC50 (Glucagon receptor [1]): 62 nM
IC50 (Glucagon receptor [2]; read-out: IC50): 3430 nM

CC(C)(C)[C@H]1CC[C@H](N(C(=O)Nc2ccc(OC(F)(F)F)cc2)C2CCOc3cc(C(=O)NCCC(=O)O)ccc32)CC1 (stereo not given in full)
IC50 [3]: 217 nM
bioavailability [4]: 15%
Vd [5]: 1.4 L/kg
half-life [6]: 3.4 h
clearance [7]: 13 mL/min/kg
Cmax [8]: 60 nM

CC(C)(C)[C@H]1CC[C@H](N(C(=O)Nc2cc(C(F)(F)F)cc(C(F)(F)F)c2)C2CCc3cc(C(=O)Nc4nnn[nH]4)ccc32)CC1 (stereo not given in full)
IC50 [3]: 4260 nM
IC50 (Glucagon receptor [1]): 7.6 nM
IC50 (Glucagon receptor [2]; read-out: IC50): 61 nM

CC(C)(C)[C@H]1CC[C@@H](N(C(=O)Nc2ccc(OC(F)(F)F)cc2)C2CCc3cc(C(=O)Nc4nn[nH]n4)ccc32)CC1 (single isomer, unassigned)
IC50 [3]: 435 nM
IC50 (Glucagon receptor [1]): 1.01 nM
IC50 (Glucagon receptor [2]; read-out: IC50): 18 nM

CC(C)(C)[C@H]1CC[C@H](N(C(=O)Cc2ccc(OC(F)(F)F)cc2)C2CCc3cc(C(=O)Nc4nnn[nH]4)ccc32)CC1 (stereo not given in full)
IC50 [3]: 118 nM
IC50 (Glucagon receptor [1]): 4.8 nM
IC50 (Glucagon receptor [2]; read-out: IC50): 67 nM

CC(C)(C)[C@H]1CC[C@H](N(C(=O)Nc2ccc(OC(F)(F)F)cc2)C2CCCc3cc(C(=O)Nc4nn[nH]n4)ccc32)CC1 (stereo not given in full)
IC50 [3]: 178 nM
bioavailability [4]: 1.4%
Vd [5]: 1.4 L/kg
half-life [6]: 8 h
clearance [7]: 6.4 mL/min/kg
Cmax [8]: 40 nM

CC(C)(C)[C@H]1CC[C@H](N(C(=O)Nc2cc(Cl)cc(Cl)c2)C2CCc3cc(C(=O)NCCC(=O)O)ccc32)CC1 (stereo not given in full)
IC50 [3]: 1280 nM
IC50 (Glucagon receptor [1]): 10 nM
Fold change (CHO): > 100
IC50 (Glucagon receptor [2]; read-out: IC50): 11 nM

CC(C)(C)[C@H]1CC[C@@H](N(C(=O)Nc2ccc(OC(F)(F)F)cc2)C2CCc3cc(C(=O)Nc4nn[nH]n4)ccc32)CC1 (stereo not given in full)
IC50 (Glucagon receptor [1]): 216 nM
IC50 (Glucagon receptor [2]; read-out: IC50): 795 nM

CC(C)(C)[C@H]1CC[C@@H](N(C(=O)Nc2ccc(OC(F)(F)F)cc2)C2CCc3cc(C(=O)NCCC(=O)O)ccc32)CC1 (stereo not given in full)
IC50 (Glucagon receptor [1]): 3380 nM

O=C(O)CCNC(=O)c1ccc2c(c1)CCC2N(C(=O)Nc1ccc(OC(F)(F)F)cc1)c1ccc(C2CCCCC2)cc1 (stereo not given)
IC50 (Glucagon receptor [1]): 68 nM
IC50 (Glucagon receptor [2]; read-out: IC50): 189 nM

CC(C)(C)[C@H]1CC[C@H](N(C(=O)Nc2cc(Cl)cc(Cl)c2)C2CCc3cc(C(=O)Nc4nn[nH]n4)ccc32)CC1 (stereo not given in full)
IC50 [3]: 3530 nM
IC50 (Glucagon receptor [1]): 4.9 nM
Fold change (CHO): > 500
IC50 (Glucagon receptor [2]; read-out: IC50): 5.9 nM
